Reference: US20100120921A1, “RENIN INHIBITORS FOR TREATMENT OF HYPERTENSION IN PATIENTS WITH HIGH SODIUM DIET” (NOVARTIS AG, priority 2007, published 2010)
Entries after “also recorded” stand apart in the source; their conditions may differ.

Tested on: patients with systolic hypertension
Assay: 12-week randomized, open-label, multi-center, cross-over clinical study of aliskiren 300 mg on high versus low sodium diet (24-hour ABPM)
Format: in vivo, human
Settings: aliskiren 300 mg once daily; 4 weeks high sodium (≧200 mmol/day) vs 4 weeks low sodium (≦100 mmol/day) diet; non-inferiority margin 4 mmHg
Description: The effect of Aliskiren (300 mg) on reduction in mean 24-hour ambulatory blood pressure systolic hypertensive patients using low and high sodium diets is examined in a 12-week, randomized, open-label, multi-center, cross-over study. Subjects with systolic hypertension have a 2-4 week washout of their current antihypertensive medications. Patients who meet 8-hour ABPM criteria at week 0 (ABPM mean daytime systolic blood pressure ≧135 mmHg and <160 mmHg) are randomized to either a high sodium (≧200 mmol/day) or low sodium (≦100 mmol/day) diet and will be dispensed aliskiren 300 mg.
After 2 and 4 weeks on the assigned sodium level diet, 24-hour urine (Bentley, Brook 2006) collections for sodium and creatinine are collected and measured to confirm adherence to the diet. After 4 weeks on the assigned sodium level diet, 24-hour ABPM is measured. Patients are then crossed over to the other level sodium diet. Those patients who had high sodium diet for the first four weeks start having low sodium diet for the next 4 weeks and vice versa. After 2 and 4 weeks on the new diet, 24-hour urine collections for sodium and creatinine are again collected and measured to confirm adherence to the diet. After 4 weeks on the newly assigned sodium level diet, 24-hour ABPM are measured. […]

COCCCOc1cc(C[C@@H](C[C@H](N)[C@@H](O)C[C@H](C(=O)NCC(C)(C)C(N)=O)C(C)C)C(C)C)ccc1OC [aliskiren, 2(S),4(S),5(S),7(S)—N-(3-amino-2,2-dimethyl-3-oxopropyl)-2,7-di(1-methylethyl)-4-hydroxy-5-amino-8-[4-methoxy-3-(3-methoxy-propoxy)phenyl]-octanamide]
antihypertensive effect (change in mean 24-hour ambulatory blood pressure) on high versus low sodium diet: the same (within the BP boundaries indicated) regardless of whether the subject ingests a high or a low sodium diet; also recorded: reduce blood pressure efficiently irrespective of the sodium intake
